Earlier results on one compound are cited in US10563263B2, “Genetic polymorphisms associated with statin response and cardiovascular diseases, methods of detection and uses thereof” (CELERA CORPORATION, priority 2010, dated 2020).

The data set concerns major cardiovascular events. Particulars: JUPITER Study, 17,802 individuals (Ridker et al. 2008); cited from earlier work.

Regarding `CC(C)c1nc(N(C)S(C)(=O)=O)nc(-c2ccc(F)cc2)c1/C=C/[C@@H](O)C[C@@H](O)CC(=O)O` [rosuvastatin], the “incidence of major cardiovascular events (MI, stroke, arterial revascularization, hospitalization for unstable angina, death from cardiovascular causes)” value is “significantly reduced the incidence of major cardiovascular events”.
